Data taken from US8148391B2 (Cephalon, Inc., priority 2006, dated 2012).
Like-named read-outs stand apart in the source and are kept apart here. Each block holds one compound with its values, some of them ahead of it.

Experiments:
[1] = molecular target: T1, baculovirus-expressed ALK (Homo sapiens, UniProt Q9UM73); experiment: ALK Kinase Assay (ELISA-type, time-resolved fluorescence); type: biochemical
T1 construct: host or cells: baculovirus expression system
Method in brief: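 Substrate coating: phospholipase C-γ, 10 μg/mL in TBS. Kinase step: 30 ng/ml ALK, 15 min, 37° C. Detection and analysis: Eu-N1 PT66 antibody, with IC50 fitted as a sigmoidal variable-slope dose-response curve.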

[2] = molecular target: T2, c-Met (cytoplasmic domain) (Homo sapiens, UniProt P08581); experiment: c-Met Kinase Assay (same methods as for ALK, with modifications); type: biochemical
T2 construct: 10 ng/mL c-Met (cytoplasmic domain, Invitrogen Corporation #PV3143); purchased Invitrogen Corporation PV3143
T2 sequence (P08581 956-1390 limits assumed): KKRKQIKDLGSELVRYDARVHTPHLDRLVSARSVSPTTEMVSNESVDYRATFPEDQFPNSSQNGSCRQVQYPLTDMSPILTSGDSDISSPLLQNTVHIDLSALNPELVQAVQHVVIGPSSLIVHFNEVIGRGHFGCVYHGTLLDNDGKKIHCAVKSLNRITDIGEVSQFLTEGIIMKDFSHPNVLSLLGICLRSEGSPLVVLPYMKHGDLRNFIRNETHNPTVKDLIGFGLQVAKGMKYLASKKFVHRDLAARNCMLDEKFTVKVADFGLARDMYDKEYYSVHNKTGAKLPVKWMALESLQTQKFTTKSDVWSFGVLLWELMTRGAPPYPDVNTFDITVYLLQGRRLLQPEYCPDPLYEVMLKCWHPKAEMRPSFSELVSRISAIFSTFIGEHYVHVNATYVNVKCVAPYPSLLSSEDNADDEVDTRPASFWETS
Experimental: Briefly, each 96-well plate was coated with 100 μL/well of 10 μg/mL substrate (phospholipase C-γ) in Tris-buffered saline (TBS). […] The reaction was initiated by adding enzyme (30 ng/ml ALK) and was allowed to proceed at 37° C. for 15 minutes. Detection of the phosphorylated product was performed by adding 100 μl/well of Eu-N1 labeled PT66 antibody (Perkin Elmer # AD0041).
Data analysis was performed using ActivityBase (IDBS, Guilford, UK). IC50 values were calculated by plotting percent inhibition versus log10 of the concentration of compound and fitting to the nonlinear regression sigmoidal dose-response (variable slope) equation in XLFit (IDBS, Guilford, UK).
Reactions were initiated with 10 ng/mL c-Met (cytoplasmic domain, Invitrogen Corporation #PV3143).

[3] = 1 μM ATP (Km level), read-out: ALK Activity (ALK Kinase Inhibition, IC50)
[4] = 1 μM ATP (Km level), read-out: cMet Activity (c-Met Kinase Inhibition, IC50)
[5] = ALK kinase inhibition, 1 μM ATP, read-out: ALK Activity
[6] = c-Met kinase inhibition, 1 μM ATP, read-out: cMet Activity
[7] = ALK kinase inhibition, 1 μM ATP (Km level), read-out: ALK Activity
[8] = c-Met kinase inhibition, 1 μM ATP (Km level), read-out: cMet Activity
[9] = 1 μM ATP (Km level), 30 ng/ml ALK, 37° C., 15 minutes, read-out: ALK Activity (ALK kinase inhibition, IC50 class)
[10] = 1 μM ATP (Km level), 10 ng/mL c-Met, read-out: cMet Activity (c-Met kinase inhibition, IC50 class)

T1 sequence (Q9UM73 19-1620): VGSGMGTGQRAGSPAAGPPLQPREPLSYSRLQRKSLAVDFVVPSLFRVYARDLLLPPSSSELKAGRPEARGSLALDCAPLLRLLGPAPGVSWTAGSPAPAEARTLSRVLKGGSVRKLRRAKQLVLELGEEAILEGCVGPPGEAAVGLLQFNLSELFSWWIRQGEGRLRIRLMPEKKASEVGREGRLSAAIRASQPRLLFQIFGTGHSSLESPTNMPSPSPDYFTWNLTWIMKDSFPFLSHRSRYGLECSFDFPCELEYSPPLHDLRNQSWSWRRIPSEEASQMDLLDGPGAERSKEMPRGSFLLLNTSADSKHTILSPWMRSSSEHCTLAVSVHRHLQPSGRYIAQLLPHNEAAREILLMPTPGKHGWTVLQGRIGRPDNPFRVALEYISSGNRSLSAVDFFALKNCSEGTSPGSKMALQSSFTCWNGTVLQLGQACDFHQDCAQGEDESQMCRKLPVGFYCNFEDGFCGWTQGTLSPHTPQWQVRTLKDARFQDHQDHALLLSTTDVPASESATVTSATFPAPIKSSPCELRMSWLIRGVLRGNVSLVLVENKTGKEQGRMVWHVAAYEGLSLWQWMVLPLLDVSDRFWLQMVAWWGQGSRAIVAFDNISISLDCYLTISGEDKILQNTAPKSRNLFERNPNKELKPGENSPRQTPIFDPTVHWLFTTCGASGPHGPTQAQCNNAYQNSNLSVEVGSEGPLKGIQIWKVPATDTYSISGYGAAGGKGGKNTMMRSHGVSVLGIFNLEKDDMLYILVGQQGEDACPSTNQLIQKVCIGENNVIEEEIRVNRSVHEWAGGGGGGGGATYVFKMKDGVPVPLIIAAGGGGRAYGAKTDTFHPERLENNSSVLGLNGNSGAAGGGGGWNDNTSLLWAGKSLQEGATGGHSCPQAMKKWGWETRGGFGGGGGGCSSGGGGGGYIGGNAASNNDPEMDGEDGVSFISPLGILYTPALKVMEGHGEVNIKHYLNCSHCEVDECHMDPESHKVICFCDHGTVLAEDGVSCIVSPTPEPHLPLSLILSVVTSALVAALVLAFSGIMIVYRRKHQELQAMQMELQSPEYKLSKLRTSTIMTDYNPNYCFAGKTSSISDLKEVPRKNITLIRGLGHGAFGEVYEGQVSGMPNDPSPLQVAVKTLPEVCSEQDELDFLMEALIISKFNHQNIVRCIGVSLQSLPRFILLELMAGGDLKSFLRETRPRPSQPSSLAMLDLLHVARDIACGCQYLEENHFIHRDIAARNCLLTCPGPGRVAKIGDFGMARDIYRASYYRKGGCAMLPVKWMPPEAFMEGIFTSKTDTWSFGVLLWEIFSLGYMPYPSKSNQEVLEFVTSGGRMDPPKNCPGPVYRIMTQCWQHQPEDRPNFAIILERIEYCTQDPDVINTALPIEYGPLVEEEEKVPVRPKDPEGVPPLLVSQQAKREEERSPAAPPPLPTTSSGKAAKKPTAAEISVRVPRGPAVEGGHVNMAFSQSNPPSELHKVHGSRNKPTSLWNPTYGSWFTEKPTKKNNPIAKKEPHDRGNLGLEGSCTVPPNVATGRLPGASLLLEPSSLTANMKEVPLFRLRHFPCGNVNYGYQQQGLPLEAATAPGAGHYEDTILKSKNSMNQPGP

IC50 [1, 5]: 1000 to 10000 nM | IC50 [2, 6]: 1000 to 10000 nM
SMILES: CN1C(=O)OCCc2cc(Nc3ncc(Cl)c(Nc4c(F)cccc4OCCN)n3)ccc21 [Example 1781, 2-{4-[2-(2-Amino-ethoxy)-6-fluoro-phenylamino]-5-chloro-pyrimidin-2-ylamino}-5-methyl-8,9-dihydro-5H-7-oxa-5-aza-benzocyclohepten-6-one]

IC50 [1, 7]: 100 to 1000 nM | IC50 [2, 8]: 100 to 1000 nM
SMILES: CCN1C(=O)OCCc2ccc(Nc3ncc(Cl)c(Nc4ccccc4C(=O)NC)n3)cc21 [Example 1881, 2-[5-Chloro-2-(5-ethyl-6-oxo-5,6,8,9-tetrahydro-7-oxa-5-aza-benzocyclohepten-3-ylamino)-pyrimidin-4-ylamino]-N-methyl-benzamide]

IC50 [1, 9]: < 100 nM | IC50 [2, 10]: 1000 to 10000 nM
SMILES: COCCNC1CCc2cc(Nc3ncc(Cl)c(Nc4ccccc4S(=O)(=O)N4CCC(O)C4)n3)c(OC)cc2CC1 (stereo not shown) [Example 1082, 1-(2-{5-Chloro-2-[3-methoxy-7-(2-methoxy-ethylamino)-6,7,8,9-tetrahydro-5H-benzocyclohepten-2-ylamino]-pyrimidin-4-ylamino}-benzenesulfonyl)-pyrrolidin-3-ol]

IC50 [1, 5]: < 100 nM | IC50 [2, 6]: 1000 to 10000 nM
SMILES: COc1cc2c(cc1Nc1ncc(Cl)c(Nc3ccccc3S(=O)(=O)N(C)C)n1)CCN(CCO)CC2 [Example 1530, 2-{5-Chloro-2-[3-(2-hydroxy-ethyl)-8-methoxy-2,3,4,5-tetrahydro-1H-3-benzazepin-7-ylamino]-pyrimidin-4-ylamino}-N,N-dimethyl-benzenesulfonamide]

IC50 [1, 9]: 100 to 1000 nM | IC50 [2, 10]: 100 to 1000 nM
SMILES: CC(=O)N1CCC(=O)NCc2cc(Nc3ncc(Cl)c(Nc4ccccc4CCC#N)n3)ccc21 [Example 1233, 3-{2-[2-(1-Acetyl-4-oxo-1,2,3,4,5,6-hexahydro-benzo[b][1,5]diazocin-8-ylamino)-5-chloro-pyrimidin-4-ylamino]-phenyl}-propionitrile]

IC50 [1, 5]: < 100 nM | IC50 [2, 6]: 100 to 1000 nM
SMILES: CNC(=O)c1cccc(F)c1Nc1nc(Nc2ccc3c(c2)N(CCN2CCCC2)CCCC3(C)C)ncc1Cl [Example 1605, 2-{5-Chloro-2-[5,5-dimethyl-1-(2-pyrrolidin-1-yl-ethyl)-2,3,4,5-tetrahydro-1H-benzo[b]azepin-8-ylamino]-pyrimidin-4-ylamino}-3-fluoro-N-methyl-benzamide]

IC50 [1, 5]: < 100 nM | IC50 [2, 6]: > 10000 nM
SMILES: COc1cc(N2CCOCC2)ccc1Nc1nc(Nc2ccc3c(c2)N(C(C)C)C(=O)CCC3(C)C)ncc1Cl [Example 1591, 8-[5-Chloro-4-(2-methoxy-4-morpholin-4-yl-phenylamino)-pyrimidin-2-ylamino]-1-isopropyl-5,5-dimethyl-1,3,4,5-tetrahydro-benzo[b]azepin-2-one]

IC50 [1, 5]: < 100 nM | IC50 [2, 6]: 100 to 1000 nM
SMILES: COc1cc2c(cc1Nc1ncc(Cl)c(Nc3ccccc3S(=O)(=O)N3CCC(O)C3)n1)CCN(CCO)CC2 (stereo not shown) [Example 1551, 1-(2-{5-Chloro-2-[3-(2-hydroxy-ethyl)-8-methoxy-2,3,4,5-tetrahydro-1H-3-benzazepin-7-ylamino]-pyrimidin-4-ylamino}-benzenesulfonyl)-pyrrolidin-3-ol]

IC50 [1, 9]: 1000 to 10000 nM | IC50 [2, 10]: > 10000 nM
SMILES: COCCN1CCc2cc(Nc3ncc(Cl)c(N[C@@H]4[C@H](C(N)=O)[C@H]5C=C[C@@H]4C5)n3)c(OC)cc2CC1 [Example 1322, (1R,2R,3S,4S)-3-{5-Chloro-2-[8-methoxy-3-(2-methoxy-ethyl)-2,3,4,5-tetrahydro-1H-benzo[d]azepin-7-ylamino]-pyrimidin-4-ylamino}-bicyclo[2.2.1]hept-5-ene-2-carboxylic acid amide]

IC50 [1, 9]: 100 to 1000 nM | IC50 [2, 10]: 1000 to 10000 nM
SMILES: CCN1C(=O)CCC(C)(C)c2ccc(Nc3ncc(Cl)c(Nc4c(F)cccc4N(C)CCC#N)n3)cc21 [Example 1264, 3-({2-[5-Chloro-2-(1-ethyl-5,5-dimethyl-2-oxo-2,3,4,5-tetrahydro-1H-1-benzazepin-8-ylamino)-pyrimidin-4-ylamino]-3-fluoro-phenyl}-methyl-amino)-propionitrile]

IC50 [1, 9]: 100 to 1000 nM | IC50 [2, 10]: 1000 to 10000 nM
SMILES: NC(=O)c1cccc(F)c1Nc1nc(Nc2ccc3c(c2)NC(=O)CCC3)ncc1Cl [Example 1256, 2-[5-Chloro-2-(2-oxo-2,3,4,5-tetrahydro-1H-1-benzazepin-8-ylamino)-pyrimidin-4-ylamino]-3-fluoro-benzamide]

Second part, the compound before the results:

SMILES: Cc1ccc(-c2ccccc2Nc2nc(Nc3ccc4c(c3)C(C)(C)CCC(=O)N4)ncc2Cl)nc1 [Example 1003, 7-{5-Chloro-4-[2-(5-methyl-pyridin-2-yl)-phenylamino]-pyrimidin-2-ylamino}-5,5-dimethyl-1,3,4,5-tetrahydro-benzo[b]azepin-2-one]
IC50 [1, 3]: 1000 to 10000 nM | IC50 [2, 4]: > 10000 nM

SMILES: COc1ccc(Nc2ncc(Cl)c(N[C@H]3[C@@H](C(N)=O)[C@@H]4C=C[C@H]3C4)n2)c2c1CCCC(N1CCOCC1)C2 (single isomer, unassigned) [Example 942]
IC50 [1, 3]: 1000 to 10000 nM | IC50 [2, 4]: > 10000 nM

SMILES: CCN1CCN(CC)c2cc(Nc3ncc(Cl)c(N[C@@H]4CCCC[C@H]4NS(C)(=O)=O)n3)c(Cl)cc2C1 [Example 427, N-{(1R,2R)-2-[5-Chloro-2-(7-chloro-1,4-diethyl-2,3,4,5-tetrahydro-1H-benzo[e][1,4]diazepin-8-ylamino)-pyrimidin-4-ylamino]-cyclohexyl}-methanesulfonamide]
IC50 [1, 7]: < 100 nM | IC50 [2, 8]: > 10000 nM

SMILES: CS(=O)(=O)N[C@@H]1CCCC[C@H]1Nc1nc(Nc2ccc3c(c2)CNCCO3)ncc1Cl [Example 524, N-{(1R,2R)-2[5-Chloro-2-(2,3,4,5-tetrahydro-benzo[f]oxazepin-7-ylamino)-pyrimidin-4-ylamino]-cyclohexyl}-methanesulfonamide]
IC50 [1, 3]: < 100 nM | IC50 [2, 4]: 1000 to 10000 nM

SMILES: CCN1CCSc2ccc(Nc3ncc(Cl)c(Nc4ccccc4C(=O)NC)n3)cc2C1 [Example 517, 2-[5-Chloro-2-(8-ethyl-6,7,8,9-tetrahydro-5-thia-aza-benzocyclohepten-2-ylamino)-pyrimidin-4-ylamino]-N-methyl-benzamide]
IC50 [1, 3]: < 100 nM | IC50 [2, 4]: < 100 nM

SMILES: CNS(=O)(=O)c1ccccc1Nc1nc(Nc2ccc3c(c2)C2CC3CN(S(C)(=O)=O)C2)ncc1Cl (stereo not shown) [Example 163, 2-[5-Chloro-2-(10-methanesulfonyl-10-aza-tricyclo[6.3.1.0*2,7*]dodeca-2,4,6-trien-4-ylamino)-pyrimidin-4-ylamino]-N-methyl-benzenesulfonamide]
IC50 [1, 7]: < 100 nM | IC50 [2, 8]: 1000 to 10000 nM

SMILES: COc1c(Nc2ncc(Cl)c(Nc3ccccc3S(=O)(=O)N(C)C)n2)ccc2c1CCC(NCC(F)F)CC2 (stereo not shown) [Example 683, 2-{5-Chloro-2-[7-(2,2-difluoro-ethylamino)-1-methoxy-6,7,8,9-tetrahydro-5H-benzocyclohepten-2-ylamino]-pyrimidin-4-ylamino}-N,N-dimethyl-benzenesulfonamide]
IC50 [1, 3]: < 100 nM | IC50 [2, 4]: > 10000 nM

SMILES: COc1cc(N2CCOCC2)ccc1Nc1nc(Nc2ccc3c(c2OC)CCC(N2CCOCC2)CC3)ncc1Cl (stereo not shown) [Example 894, 5-Chloro-N*4*-(2-methoxy-4-morpholin-4-yl-phenyl)-N*2*-(1-methoxy-7-morpholin-4-yl-6,7,8,9-tetrahydro-5H-benzocyclohepten-2-yl)-pyrimidine-2,4-diamine]
IC50 [1, 3]: < 100 nM | IC50 [2, 4]: > 10000 nM

SMILES: CNC(=O)c1ccccc1Nc1nc(Nc2ccc3c(c2)CNCCS3)ncc1Cl [Example 516, 2-[5-Chloro-2-(6,7,8,9-tetrahydro-5-thia-aza-benzocyclohepten-2-ylamino)-pyrimidin-4-ylamino]-N-methyl-benzamide]
IC50 [1, 3]: < 100 nM | IC50 [2, 4]: < 100 nM
